Activity calls are given as the source filed them. The calls are words filed in the database; no cut-off is given here.
Experiments:
[1] = system: Panel NCI-60 (60 carcinoma cell lines); assay: Antiproliferative activity against human Panel NCI-60 (60 carcinoma cell lines) cells assessed as decrease in cell count incubated for 48 hrs by SRB assay; assay type: functional
[2] = target: T1, NAD-dependent protein deacetylase sirtuin-2 (Homo sapiens) (UniProt Q8IXJ6); assay: Inhibition of SIRT2 in human MCF7 cells assessed as induction of eIF5A acetylation incubated for 24 hrs by immunoblotting analysis; assay type: cell-based; settings: dose 2-10 µM
T1 sequence (whole entry): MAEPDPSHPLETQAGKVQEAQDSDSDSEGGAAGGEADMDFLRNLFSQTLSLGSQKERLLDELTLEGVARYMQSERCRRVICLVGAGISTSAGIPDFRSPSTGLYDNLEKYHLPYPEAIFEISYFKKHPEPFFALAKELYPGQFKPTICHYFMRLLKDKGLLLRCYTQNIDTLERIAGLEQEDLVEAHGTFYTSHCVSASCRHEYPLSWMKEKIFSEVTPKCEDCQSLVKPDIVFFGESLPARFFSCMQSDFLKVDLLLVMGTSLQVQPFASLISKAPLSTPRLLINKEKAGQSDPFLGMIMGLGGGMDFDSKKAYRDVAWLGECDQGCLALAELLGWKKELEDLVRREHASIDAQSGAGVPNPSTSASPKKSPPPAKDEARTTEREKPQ

[3] = Cytotoxicity against human PBMC cells assessed as cell viability incubated for 2 days by MTT assay; assay type: toxicity, cell-based
[4] = Selectivity ratio of IC50 for antiproliferative activity against human MOLT-4 cells to IC50 for cytotoxicity against human PBMC cells; assay type: toxicity, cell-based; settings: MOLT-4 cells and PBMC cells, read-out: Ratio IC50
[5] = Cytotoxicity against human PBMC cells assessed as cell viability at 10 uM incubated for 2 days by MTT assay relative to control; assay type: toxicity, cell-based; settings: time 2 day, read-out: Activity
[6] = system: Panel NCI-60 (60 carcinoma cell lines); assay: Growth inhibition of human Panel NCI-60 (60 carcinoma cell lines) cells incubated for 48 hrs by SRB assay; assay type: functional
MCF7 [7] = assay: Cell cycle arrest in human MCF7 cells assessed as accumulation of G2/M phase cells incubated for 24 hrs by flow cytometric analysis (reference value: 18 %); assay type: functional
[8] = system: Panel NCI-60 (60 carcinoma cell lines); assay: Antiproliferative activity against human Panel NCI-60 (60 carcinoma cell lines) cells assessed as inhibition of cell growth incubated for 48 hrs by SRB assay; assay type: functional
[9] = Cytotoxicity against human PBMC cells assessed as cell viability at 1 uM incubated for 2 days by MTT assay relative to control; assay type: toxicity, cell-based; settings: time 2 day, read-out: Activity
[10] = target: T2, NAD-dependent protein deacetylase sirtuin-2 (Homo sapiens, UniProt Q8IXJ6); assay: Inhibition of recombinant SIRT2 (unknown origin) deacetylase activity using Ac-RHKK(Ac)-MCA as substrate incubated for 60 mins in presence of NAD by fluorogenic assay
T2 sequence (Q8IXJ6 whole entry): T1 sequence (whole entry)

DNA = assay: Induction of DNA (unknown origin) cleavage; assay type: nucleic-acid assay
[11] = Selectivity ratio of IC50 for antiproliferative activity against spontaneous remission leukemia cell line (unknown origin) to IC50 for cytotoxicity against human PBMC cells; assay type: toxicity, cell-based; settings: read-out: Ratio IC50
MCF7 [12] = assay: Cell cycle arrest in human MCF7 cells assessed as accumulation of S phase cells incubated for 24 hrs by flow cytometric analysis (reference value: 26.6 %); assay type: functional
MCF7 [13] = assay: Cell cycle arrest in human MCF7 cells assessed as G0-G1 phase cells incubated for 24 hrs by flow cytometric analysis (reference value: 55.8 %); assay type: functional

Compound | LC50 (50% net cell kill) [1] [nM] | GI50 [6] [nM] | TGI [8] [nM] | IC50 [10] [nM] | also measured
COc1ccc(C2(SCCNCc3cc(N(C)C)ccn3)c3ccccc3C=Cc3ccccc32)cc1 | ≥ 720 | 40 | ≥ 70 | 5630 | inhibition [2]: Dose-Dependent Effect; IC50 at 2 days [3]: > 1000 nM; selectivity ratio [4]: 2.2; viability at 48 h, 10 µM [5]: 16.2%; Activity (MCF7 [7]): 46.5%; viability at 48 h, 1 µM [9]: 84.9%; Activity (DNA): inactive; selectivity ratio [11]: 25; Activity (MCF7 [12]): 29.4%; Activity (MCF7 [13]): 26.7%
COc1ccc(C2(SCCNCc3cc(N(C)C)ccn3)c3ccccc3CCc3ccccc32)cc1 |  | 190 | 440 | 8630 | 
CN(C)c1ccnc(CNCCSC2(c3ccccc3)c3ccccc3C=Cc3ccccc32)c1 | ≥ 2170 | 220 | ≥ 500 | 12000 | 
CN(C)c1ccnc(CNCCSC2c3ccccc3C=Cc3ccccc32)c1 |  |  |  | > 50000 | 
COc1ccc(C(SCCNCc2cc(N(C)C)ccn2)(c2ccccc2)c2ccccc2)cc1 | ≥ 1820 | 210 | ≥ 480 | 12400 | 
CN(C)c1ccnc(CNCCCSC(c2ccccc2)(c2ccccc2)c2ccccc2)c1 |  | 1550 | 3190 | 26100 | 
CCN(CC)c1ccnc(CNC(Cc2cn(C(c3ccccc3)(c3ccccc3)c3ccccc3)cn2)C(=O)OC)c1 (centres undefined) |  |  |  | 7610 | 
CCN(CC)c1ccnc(CNCCSC(c2ccccc2)(c2ccccc2)c2ccc(OC)cc2)c1 | ≥ 5590 | 1300 | 3060 | 14200 | 
CN(C)c1ccnc(CNCCSC2(c3ccc(C(F)(F)F)cc3)c3ccccc3C=Cc3ccccc32)c1 | ≥ 10000 | 610 | 4390 | > 50000 | 
Cc1ccc(C(SCCNCc2cc(N(C)C)ccn2)(c2ccccc2)c2ccccc2)cc1 | ≥ 4650 | 370 | 1570 | 9910 | 
CN(C)c1ccnc(CNCCc2cn(C(c3ccccc3)(c3ccccc3)c3ccccc3)cn2)c1 |  | 260 | 1190 | 8620 | 
CN(C)c1ccnc(CNCCSC2(c3ccccc3)c3ccccc3CCc3ccccc32)c1 |  | 1510 | ≥ 2930 | 10600 | 
CCN(CC)c1ccnc(CNCCSC(c2ccccc2)(c2ccccc2)c2ccc(C)cc2)c1 | ≥ 5590 | 1380 | 2850 | 27300 | 
CCN(CC)c1ccnc(CNCCc2cn(C(c3ccccc3)(c3ccccc3)c3ccccc3)cn2)c1 |  | 1030 | ≥ 3200 | 15400 | 
CN(C)c1ccnc(CNCCSC2(c3ccc(C(F)(F)F)cc3)c3ccccc3CCc3ccccc32)c1 | ≥ 4770 | 180 | 370 | 49600 | 
